Among the test systems are MCF7 breast; BT-549 breast; SK-MEL-28 melanoma; OVCAR-8 ovarian; CAKI-1 renal; IGROV1 ovarian; HCC-2998 colon; 786-0 renal; NCI/ADR-RES ovarian; ACHN renal.
What all share (experiment): growth of human tumour cells (NCI), 48 h

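1) Cells in 96-well plates. 2) Compound, 48 h, 5 concentrations. 3) Linear interpolation between surrounding doses. 4) Unreached endpoint = highest concentration. At the TGI there is no net growth.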

With `CC1OC23CCCCC2C(C#N)(C#N)C1(C#N)C(=N)O3` (stereo not given), the TGI came to 52.3 µM in the experiment on MCF7 breast; 34.4 µM with BT-549 breast; 56 µM in the experiment with SK-MEL-28 melanoma; 54.1 µM with OVCAR-8 ovarian; 19.8 µM in the experiment with CAKI-1 renal; 41.9 µM in the experiment with IGROV1 ovarian. Moreover, the TGI in the experiment with HCC-2998 colon is 50.1 µM; in the experiment with 786-0 renal, 28.6 µM; in the experiment on NCI/ADR-RES ovarian, over 100 µM; with ACHN renal, 42.8 µM.
Consider `Nc1ncnc2c1ncn2CCCNO`, for which the TGI in the experiment on MCF7 breast, in the experiment with BT-549 breast, with SK-MEL-28 melanoma, in the experiment on OVCAR-8 ovarian, with CAKI-1 renal and with IGROV1 ovarian was over 100 µM in each case. In addition, the TGI in the experiment on HCC-2998 colon, in the experiment on 786-0 renal, in the experiment with NCI/ADR-RES ovarian and with ACHN renal was over 100 µM each time.
Take `NCC1OC(OC2C(N)CC(N)C(O)C2OC2OC(CO)C(O)C2O)C(N)C(O)C1O` (stereo not given): the TGI in the experiment with MCF7 breast, with BT-549 breast, in the experiment with SK-MEL-28 melanoma, with OVCAR-8 ovarian, in the experiment with CAKI-1 renal and in the experiment on IGROV1 ovarian was over 100 µM in each case. Moreover, the TGI in the experiment on HCC-2998 colon, in the experiment on 786-0 renal, with NCI/ADR-RES ovarian and in the experiment with ACHN renal was over 100 µM each time.
With `CCOC(=O)C(NC(=O)c1ccccc1)(Nc1ccc(S(=O)(=O)Nc2cc(C)on2)cc1)C(F)(F)F` (stereo not given), the TGI with MCF7 breast, with BT-549 breast, with SK-MEL-28 melanoma, in the experiment on OVCAR-8 ovarian, in the experiment on CAKI-1 renal and in the experiment with IGROV1 ovarian was over 100 µM each time. Besides, the TGI in the experiment on HCC-2998 colon, in the experiment on 786-0 renal, with NCI/ADR-RES ovarian and with ACHN renal was over 100 µM in each case.
In the case of `CCCCCCCCCCCCCCCC[N+](C)(C)CCl`, the TGI in the experiment on MCF7 breast was over 28.9 µM; in the experiment on BT-549 breast, 7.87 µM; in the experiment with SK-MEL-28 melanoma it was over 50.7 µM; in the experiment on OVCAR-8 ovarian, 7.43 µM; in the experiment on CAKI-1 renal, 8.74 µM; with IGROV1 ovarian, 1.31 µM. For the same molecule, the TGI in the experiment on HCC-2998 colon was determined as 3.18 µM; in the experiment with 786-0 renal, 3.31 µM; with NCI/ADR-RES ovarian, 49 µM; in the experiment on ACHN renal, 8.36 µM.
Turning to `CCOc1ccc(Nc2nc(N)nc(N)c2N=O)cc1`, the TGI is over 100 µM with MCF7 breast; over 100 µM in the experiment on BT-549 breast; over 100 µM in the experiment with SK-MEL-28 melanoma; over 100 µM in the experiment on OVCAR-8 ovarian; 38.5 µM in the experiment with CAKI-1 renal; 33.4 µM in the experiment with IGROV1 ovarian. The TGI in the experiment with HCC-2998 colon, in the experiment with 786-0 renal, in the experiment with NCI/ADR-RES ovarian and with ACHN renal was over 100 µM throughout.
Turning to `CCOC(=O)NC(Nc1ccc(C(=O)O)cc1)(C(F)(F)F)C(F)(F)F`, the TGI in the experiment with MCF7 breast, in the experiment on BT-549 breast, with SK-MEL-28 melanoma, with OVCAR-8 ovarian, in the experiment with CAKI-1 renal and in the experiment on IGROV1 ovarian was over 100 µM in each case. Besides, the TGI in the experiment with HCC-2998 colon, in the experiment with 786-0 renal, in the experiment with NCI/ADR-RES ovarian and in the experiment on ACHN renal was over 100 µM throughout.
For `COC(=O)c1sc2c(Cl)c(Cl)sc2c1Cl`, the TGI in the experiment with MCF7 breast, in the experiment with BT-549 breast, with SK-MEL-28 melanoma, in the experiment with OVCAR-8 ovarian, in the experiment on CAKI-1 renal and in the experiment with IGROV1 ovarian was over 100 µM in each case. Further, the TGI in the experiment with HCC-2998 colon, in the experiment on 786-0 renal, in the experiment with NCI/ADR-RES ovarian and with ACHN renal was over 100 µM in each case.

Source of the values: PubChem BioAssay (NCI).
